Values quoted from earlier work, collected in patent US6863905B1, “Enhanced iodine treatment of drinking water” (Shanbrom Technologies, LLC, priority 2002, dated 2005).
≈ marks a conversion by molar mass, not a printed value.

Conditions: at 20° C.

Question: For `II` [iodine], which solubility in water is on record?
Answer: 300 µg/mL (≈ 1180 µM)
